Data taken from the kinase profiling compilation of Christmann-Franck et al. (2016).

How the values were obtained:
TAOK3 (human) = TAOK3 (human) (UniProt Q9H2K8); assay: KINOMEscan competition binding; details: compound 10.0 µM
RPS6KA2 KD2 (human) = RPS6KA2 KD2 (human) (UniProt Q15349); assay: KINOMEscan competition binding; details: compound 10.0 µM
PIK3CB (human) = PIK3CB (human) (UniProt P42338); assay: KINOMEscan competition binding; details: compound 10.0 µM
PIM3 (human) = PIM3 (human) (UniProt Q86V86); assay: KINOMEscan competition binding; details: compound 10.0 µM
STK17B (human) = STK17B (human) (UniProt O94768); assay: KINOMEscan competition binding; details: compound 10.0 µM
RIOK1 (human) = RIOK1 (human) (UniProt Q9BRS2); assay: KINOMEscan competition binding; details: compound 10.0 µM
DAPK3 (human) = DAPK3 (human) (UniProt O43293); assay: KINOMEscan competition binding; details: compound 10.0 µM
RPS6KA4 KD2 (human) = RPS6KA4 KD2 (human) (UniProt O75676); assay: KINOMEscan competition binding; details: compound 10.0 µM
RIOK3 (human) = RIOK3 (human) (UniProt O14730); assay: KINOMEscan competition binding; details: compound 10.0 µM
PIM1 (human) [1] = target: PIM1 (human) (UniProt P11309); assay: KINOMEscan competition binding; details: compound 10.0 µM
[2] = system: EIF2AK4 KD2 (human), Q9P2K8 [S808G]; assay: KINOMEscan competition binding; details: compound 10.0 µM
HIPK1 (human) = HIPK1 (human) (UniProt Q86Z02); assay: KINOMEscan competition binding; details: compound 10.0 µM
ZAP70 (human) = ZAP70 (human) (UniProt P43403); assay: KINOMEscan competition binding; details: compound 10.0 µM
BMP2K (human) = BMP2K (human) (UniProt Q9NSY1); assay: KINOMEscan competition binding; details: compound 10.0 µM
STK17A (human) = STK17A (human) (UniProt Q9UEE5); assay: KINOMEscan competition binding; details: compound 10.0 µM
PIK3CG (human) = PIK3CG (human) (UniProt P48736); assay: KINOMEscan competition binding; details: compound 10.0 µM
CSNK2A2 (human) = CSNK2A2 (human) (UniProt P19784); assay: KINOMEscan competition binding; details: compound 10.0 µM
PIM2 (human) [3] = target: PIM2 (human) (UniProt Q9P1W9); assay: KINOMEscan competition binding; details: compound 10.0 µM
CSNK2A1 (human) = CSNK2A1 (human) (UniProt P68400); assay: KINOMEscan competition binding; details: compound 10.0 µM
RPS6KA5 KD2 (human) = RPS6KA5 KD2 (human) (UniProt O75582); assay: KINOMEscan competition binding; details: compound 10.0 µM
SRPK3 (human) = SRPK3 (human) (UniProt Q9UPE1); assay: KINOMEscan competition binding; details: compound 10.0 µM
CLK1 (human) = CLK1 (human) (UniProt P49759); assay: KINOMEscan competition binding; details: compound 10.0 µM
AAK1 (human) = AAK1 (human) (UniProt Q2M2I8); assay: KINOMEscan competition binding; details: compound 10.0 µM
SRPK1 (human) = SRPK1 (human) (UniProt Q96SB4); assay: KINOMEscan competition binding; details: compound 10.0 µM
CSNK1G2 (human) = CSNK1G2 (human) (UniProt P78368); assay: KINOMEscan competition binding; details: compound 10.0 µM
PDGFRB (human) = PDGFRB (human) (UniProt P09619); assay: KINOMEscan competition binding; details: compound 10.0 µM
PLK1 (human) = PLK1 (human) (UniProt P53350); assay: KINOMEscan competition binding; details: compound 10.0 µM
DAPK2 (human) = DAPK2 (human) (UniProt Q9UIK4); assay: KINOMEscan competition binding; details: compound 10.0 µM
CLK2 (human) = CLK2 (human) (UniProt P49760); assay: KINOMEscan competition binding; details: compound 10.0 µM
DAPK1 (human) = DAPK1 (human) (UniProt P53355); assay: KINOMEscan competition binding; details: compound 10.0 µM
BTK (human) = BTK (human) (UniProt Q06187); assay: KINOMEscan competition binding; details: compound 10.0 µM
RIOK2 (human) = RIOK2 (human) (UniProt Q9BVS4); assay: KINOMEscan competition binding; details: compound 10.0 µM
CDK7 (human) = CDK7 (human) (UniProt P50613); assay: KINOMEscan competition binding; details: compound 10.0 µM
PIK3CD (human) = PIK3CD (human) (UniProt O00329); assay: KINOMEscan competition binding; details: compound 10.0 µM
MAP2K3 (human) = MAP2K3 (human) (UniProt P46734); assay: KINOMEscan competition binding; details: compound 10.0 µM
NUAK2 (human) = NUAK2 (human) (UniProt Q9H093); assay: KINOMEscan competition binding; details: compound 10.0 µM
[4] = target: TYK2 JH2 pseudokinase (human) (UniProt P29597); assay: KINOMEscan competition binding; details: compound 10.0 µM
MKNK2 (human) = MKNK2 (human) (UniProt Q9HBH9); assay: KINOMEscan competition binding; details: compound 10.0 µM
RPS6KA1 KD2 (human) = RPS6KA1 KD2 (human) (UniProt Q15418); assay: KINOMEscan competition binding; details: compound 10.0 µM
PAK2 (human) = PAK2 (human) (UniProt Q13177); assay: KINOMEscan competition binding; details: compound 10.0 µM
RPS6KA6 KD2 (human) = RPS6KA6 KD2 (human) (UniProt Q9UK32); assay: KINOMEscan competition binding; details: compound 10.0 µM
MAP2K4 (human) = MAP2K4 (human) (UniProt P45985); assay: KINOMEscan competition binding; details: compound 10.0 µM
MAPK10 (human) = MAPK10 (human) (UniProt P53779); assay: KINOMEscan competition binding; details: compound 10.0 µM
TTK (human) = TTK (human) (UniProt P33981); assay: KINOMEscan competition binding; details: compound 10.0 µM
GAK (human) = GAK (human) (UniProt O14976); assay: KINOMEscan competition binding; details: compound 10.0 µM
CLK4 (human) = CLK4 (human) (UniProt Q9HAZ1); assay: KINOMEscan competition binding; details: compound 10.0 µM
[5] = target: JAK1 JH2 pseudokinase (human) (UniProt P23458); assay: KINOMEscan competition binding; details: compound 10.0 µM
MAP3K7 (human) = MAP3K7 (human) (UniProt O43318); assay: KINOMEscan competition binding; details: compound 10.0 µM
ACVR2B (human) = ACVR2B (human) (UniProt Q13705); assay: KINOMEscan competition binding; details: compound 10.0 µM
PLK4 (human) = PLK4 (human) (UniProt O00444); assay: KINOMEscan competition binding; details: compound 10.0 µM
GSK3A (human) = GSK3A (human) (UniProt P49840); assay: KINOMEscan competition binding; details: compound 10.0 µM
STK24 (human) = STK24 (human) (UniProt Q9Y6E0); assay: KINOMEscan competition binding; details: compound 10.0 µM
DYRK1B (human) = DYRK1B (human) (UniProt Q9Y463); assay: KINOMEscan competition binding; details: compound 10.0 µM
TGFBR2 (human) = TGFBR2 (human) (UniProt P37173); assay: KINOMEscan competition binding; details: compound 10.0 µM
TAOK1 (human) = TAOK1 (human) (UniProt Q7L7X3); assay: KINOMEscan competition binding; details: compound 10.0 µM
CSNK1D (human) = CSNK1D (human) (UniProt P48730); assay: KINOMEscan competition binding; details: compound 10.0 µM
ACVR2A (human) = ACVR2A (human) (UniProt P27037); assay: KINOMEscan competition binding; details: compound 10.0 µM
MAPK8 (human) = MAPK8 (human) (UniProt P45983); assay: KINOMEscan competition binding; details: compound 10.0 µM
TLK1 (human) = TLK1 (human) (UniProt Q9UKI8); assay: KINOMEscan competition binding; details: compound 10.0 µM
MYLK4 (human) = MYLK4 (human) (UniProt Q86YV6); assay: KINOMEscan competition binding; details: compound 10.0 µM
PIM1 (human) [6] = target: PIM1 (human) (UniProt P11309); assay: SelectScreen, TR FRET
PIM2 (human) [7] = target: PIM2 (human) (UniProt Q9P1W9); assay: SelectScreen, TR FRET

Chain of PIM1 (human) (P11309 whole entry, looked up): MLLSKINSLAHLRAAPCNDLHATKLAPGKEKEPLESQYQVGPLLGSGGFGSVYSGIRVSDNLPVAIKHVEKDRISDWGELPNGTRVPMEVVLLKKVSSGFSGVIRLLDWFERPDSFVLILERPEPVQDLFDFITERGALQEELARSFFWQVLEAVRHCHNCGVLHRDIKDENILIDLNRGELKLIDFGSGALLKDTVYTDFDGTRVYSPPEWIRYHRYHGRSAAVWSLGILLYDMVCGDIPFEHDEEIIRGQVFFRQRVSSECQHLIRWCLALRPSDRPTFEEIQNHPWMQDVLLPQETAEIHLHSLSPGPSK
Chain of PIM2 (human) (Q9P1W9 whole entry, looked up): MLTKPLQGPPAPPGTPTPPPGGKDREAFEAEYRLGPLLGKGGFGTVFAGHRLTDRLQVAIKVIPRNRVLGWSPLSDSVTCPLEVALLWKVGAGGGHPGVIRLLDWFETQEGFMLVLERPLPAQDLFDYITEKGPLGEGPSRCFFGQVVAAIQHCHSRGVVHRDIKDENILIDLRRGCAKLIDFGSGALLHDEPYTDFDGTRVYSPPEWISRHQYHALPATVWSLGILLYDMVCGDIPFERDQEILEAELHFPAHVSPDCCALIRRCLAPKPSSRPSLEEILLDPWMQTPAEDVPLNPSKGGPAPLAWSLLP
Chain of CSNK2A1 (human) (P68400 whole entry, looked up): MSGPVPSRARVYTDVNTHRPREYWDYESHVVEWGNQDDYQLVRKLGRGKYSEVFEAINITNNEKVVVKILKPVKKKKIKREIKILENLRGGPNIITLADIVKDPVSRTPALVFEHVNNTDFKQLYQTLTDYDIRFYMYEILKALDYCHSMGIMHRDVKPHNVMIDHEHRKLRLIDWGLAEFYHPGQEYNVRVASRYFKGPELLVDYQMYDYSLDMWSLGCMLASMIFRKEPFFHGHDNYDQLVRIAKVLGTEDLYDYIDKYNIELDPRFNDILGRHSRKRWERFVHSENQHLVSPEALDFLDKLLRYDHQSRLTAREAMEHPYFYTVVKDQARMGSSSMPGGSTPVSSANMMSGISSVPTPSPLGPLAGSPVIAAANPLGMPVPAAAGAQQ
Chain of ZAP70 (human) (P43403 whole entry, looked up): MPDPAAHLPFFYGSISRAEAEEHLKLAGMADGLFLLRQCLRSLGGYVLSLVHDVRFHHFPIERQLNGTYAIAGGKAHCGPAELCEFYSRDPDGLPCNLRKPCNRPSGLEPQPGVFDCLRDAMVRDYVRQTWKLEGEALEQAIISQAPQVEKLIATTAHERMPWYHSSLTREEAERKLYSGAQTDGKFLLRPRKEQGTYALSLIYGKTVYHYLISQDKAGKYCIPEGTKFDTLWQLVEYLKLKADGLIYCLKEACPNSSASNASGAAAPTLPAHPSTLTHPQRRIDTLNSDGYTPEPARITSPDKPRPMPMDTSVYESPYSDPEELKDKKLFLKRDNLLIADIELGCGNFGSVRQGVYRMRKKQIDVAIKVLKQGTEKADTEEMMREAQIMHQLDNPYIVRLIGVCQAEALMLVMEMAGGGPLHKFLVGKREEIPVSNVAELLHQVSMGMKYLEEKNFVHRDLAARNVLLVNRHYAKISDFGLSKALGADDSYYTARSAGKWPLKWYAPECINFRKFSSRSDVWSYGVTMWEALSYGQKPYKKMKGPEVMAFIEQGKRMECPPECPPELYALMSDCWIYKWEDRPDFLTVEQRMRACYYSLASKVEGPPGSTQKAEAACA
Chain of DAPK3 (human) (O43293 whole entry, looked up): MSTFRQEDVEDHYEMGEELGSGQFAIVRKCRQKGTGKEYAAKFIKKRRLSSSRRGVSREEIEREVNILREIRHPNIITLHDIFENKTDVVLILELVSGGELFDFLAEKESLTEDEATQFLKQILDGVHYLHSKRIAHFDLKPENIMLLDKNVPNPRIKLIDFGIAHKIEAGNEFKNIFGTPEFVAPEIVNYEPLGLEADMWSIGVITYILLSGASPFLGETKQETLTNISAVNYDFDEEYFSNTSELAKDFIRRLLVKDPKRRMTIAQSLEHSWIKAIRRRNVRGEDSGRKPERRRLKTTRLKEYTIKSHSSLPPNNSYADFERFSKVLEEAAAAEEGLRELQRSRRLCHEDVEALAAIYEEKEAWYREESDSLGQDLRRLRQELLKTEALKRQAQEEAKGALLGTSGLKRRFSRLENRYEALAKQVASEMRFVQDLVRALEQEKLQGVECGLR
Chain of STK17B (human) (O94768 whole entry, looked up): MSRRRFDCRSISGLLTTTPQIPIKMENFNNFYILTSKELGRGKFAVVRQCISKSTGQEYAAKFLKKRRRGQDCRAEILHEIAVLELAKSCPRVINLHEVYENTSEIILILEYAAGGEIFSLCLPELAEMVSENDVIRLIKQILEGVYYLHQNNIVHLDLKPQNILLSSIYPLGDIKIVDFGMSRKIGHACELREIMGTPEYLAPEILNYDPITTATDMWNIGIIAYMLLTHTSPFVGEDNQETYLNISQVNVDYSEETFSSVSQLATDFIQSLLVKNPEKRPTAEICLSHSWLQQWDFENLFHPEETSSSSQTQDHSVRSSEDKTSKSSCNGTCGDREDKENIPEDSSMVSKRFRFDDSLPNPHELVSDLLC
Chain of DAPK1 (human) (P53355 whole entry, looked up): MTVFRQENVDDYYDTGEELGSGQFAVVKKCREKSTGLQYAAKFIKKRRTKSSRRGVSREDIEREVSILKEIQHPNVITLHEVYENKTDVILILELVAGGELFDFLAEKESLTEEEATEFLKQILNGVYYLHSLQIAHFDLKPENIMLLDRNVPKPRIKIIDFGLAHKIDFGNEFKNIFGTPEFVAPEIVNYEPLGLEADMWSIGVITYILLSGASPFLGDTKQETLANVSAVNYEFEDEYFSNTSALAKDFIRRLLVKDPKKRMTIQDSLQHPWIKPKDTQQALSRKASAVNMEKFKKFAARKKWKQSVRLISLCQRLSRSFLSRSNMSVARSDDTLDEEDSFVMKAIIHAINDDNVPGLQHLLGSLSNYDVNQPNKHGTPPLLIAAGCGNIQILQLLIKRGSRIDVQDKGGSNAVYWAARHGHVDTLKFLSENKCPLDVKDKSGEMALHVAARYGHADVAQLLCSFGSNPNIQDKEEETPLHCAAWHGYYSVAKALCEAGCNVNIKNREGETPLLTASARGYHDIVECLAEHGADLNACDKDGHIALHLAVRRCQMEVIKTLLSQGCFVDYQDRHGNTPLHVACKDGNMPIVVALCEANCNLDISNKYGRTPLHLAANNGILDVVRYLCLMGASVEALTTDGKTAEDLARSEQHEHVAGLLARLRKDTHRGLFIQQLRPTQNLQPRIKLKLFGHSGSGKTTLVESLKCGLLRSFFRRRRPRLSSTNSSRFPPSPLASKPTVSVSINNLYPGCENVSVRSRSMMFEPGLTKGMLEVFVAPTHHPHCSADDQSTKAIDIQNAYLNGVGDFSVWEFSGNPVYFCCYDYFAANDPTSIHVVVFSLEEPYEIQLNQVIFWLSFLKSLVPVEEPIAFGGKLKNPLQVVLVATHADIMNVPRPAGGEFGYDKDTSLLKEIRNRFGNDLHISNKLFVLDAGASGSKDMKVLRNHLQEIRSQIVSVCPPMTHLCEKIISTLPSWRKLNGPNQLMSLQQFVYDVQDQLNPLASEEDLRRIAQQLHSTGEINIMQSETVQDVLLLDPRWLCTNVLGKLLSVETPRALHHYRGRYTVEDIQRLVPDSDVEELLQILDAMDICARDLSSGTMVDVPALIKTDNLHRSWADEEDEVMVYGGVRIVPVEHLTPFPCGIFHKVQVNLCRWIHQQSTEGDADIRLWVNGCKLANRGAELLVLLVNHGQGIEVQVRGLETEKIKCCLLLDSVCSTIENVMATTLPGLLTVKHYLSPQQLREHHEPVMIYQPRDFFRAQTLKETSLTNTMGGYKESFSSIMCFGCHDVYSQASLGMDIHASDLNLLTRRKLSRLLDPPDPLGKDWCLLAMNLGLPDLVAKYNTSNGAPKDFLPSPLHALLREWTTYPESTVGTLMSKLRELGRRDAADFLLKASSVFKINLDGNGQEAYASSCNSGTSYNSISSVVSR
Chain of CLK1 (human) (P49759 whole entry, looked up): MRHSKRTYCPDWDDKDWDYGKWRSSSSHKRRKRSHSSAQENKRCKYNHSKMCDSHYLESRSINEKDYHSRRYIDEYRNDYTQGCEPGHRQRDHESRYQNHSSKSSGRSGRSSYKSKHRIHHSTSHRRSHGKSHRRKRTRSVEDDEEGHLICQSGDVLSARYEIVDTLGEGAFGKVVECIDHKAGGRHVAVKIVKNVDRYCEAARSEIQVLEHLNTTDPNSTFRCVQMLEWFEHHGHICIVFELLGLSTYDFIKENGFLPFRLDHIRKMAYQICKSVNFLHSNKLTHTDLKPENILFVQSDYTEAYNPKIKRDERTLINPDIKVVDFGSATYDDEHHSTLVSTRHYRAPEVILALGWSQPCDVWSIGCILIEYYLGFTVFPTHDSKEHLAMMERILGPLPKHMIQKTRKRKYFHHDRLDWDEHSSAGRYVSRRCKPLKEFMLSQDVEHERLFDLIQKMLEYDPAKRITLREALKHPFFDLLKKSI

Structure (SMILES): O=C1NC(=O)/C(=C/c2c[nH]c(=O)c(-c3ccc(C(=O)Nc4ccc(N5CCNCC5)cc4)cc3)c2)S1
- kinase still bound, per cent of control (TAOK3 (human)): 26%
- kinase still bound, per cent of control (RPS6KA2 KD2 (human)): 29%
- kinase still bound, per cent of control (PIK3CB (human)): 2.4%
- kinase still bound, per cent of control (PIM3 (human)): 10%
- kinase still bound, per cent of control (STK17B (human)): 0.6%
- kinase still bound, per cent of control (RIOK1 (human)): 14%
- kinase still bound, per cent of control (DAPK3 (human)): 4.8%
- kinase still bound, per cent of control (RPS6KA4 KD2 (human)): 0.95%
- kinase still bound, per cent of control (RIOK3 (human)): 13%
- kinase still bound, per cent of control (PIM1 (human) [1]): 9.5%
- kinase still bound, per cent of control [2]: 27%
- kinase still bound, per cent of control (HIPK1 (human)): 9%
- kinase still bound, per cent of control (ZAP70 (human)): 11%
- kinase still bound, per cent of control (BMP2K (human)): 22%
- kinase still bound, per cent of control (STK17A (human)): 6.3%
- kinase still bound, per cent of control (PIK3CG (human)): 22%
- kinase still bound, per cent of control (CSNK2A2 (human)): 32%
- kinase still bound, per cent of control (PIM2 (human) [3]): 1.2%
- kinase still bound, per cent of control (CSNK2A1 (human)): 24%
- kinase still bound, per cent of control (RPS6KA5 KD2 (human)): 19%
- kinase still bound, per cent of control (SRPK3 (human)): 28%
- kinase still bound, per cent of control (CLK1 (human)): 16%
- kinase still bound, per cent of control (AAK1 (human)): 4.4%
- kinase still bound, per cent of control (SRPK1 (human)): 31%
- kinase still bound, per cent of control (CSNK1G2 (human)): 24%
- kinase still bound, per cent of control (PDGFRB (human)): 0%
- kinase still bound, per cent of control (PLK1 (human)): 17%
- kinase still bound, per cent of control (DAPK2 (human)): 6.4%
- kinase still bound, per cent of control (CLK2 (human)): 0.45%
- kinase still bound, per cent of control (DAPK1 (human)): 3.6%

Structure (SMILES): N=C1NC(=O)/C(=C/c2ccc(-c3cccc4cc[nH]c34)o2)S1
- kinase still bound, per cent of control (BTK (human)): 18%
- kinase still bound, per cent of control (RPS6KA2 KD2 (human)): 24%
- kinase still bound, per cent of control (PIK3CB (human)): 4.5%
- kinase still bound, per cent of control (PIM3 (human)): 4%
- kinase still bound, per cent of control (RIOK2 (human)): 5.5%
- kinase still bound, per cent of control (CDK7 (human)): 20%
- kinase still bound, per cent of control (PIK3CD (human)): 23%
- kinase still bound, per cent of control (MAP2K3 (human)): 17%
- kinase still bound, per cent of control (NUAK2 (human)): 21%
- kinase still bound, per cent of control (STK17B (human)): 0.4%
- kinase still bound, per cent of control [4]: 2.2%
- kinase still bound, per cent of control (MKNK2 (human)): 11%
- kinase still bound, per cent of control (DAPK3 (human)): 16%
- kinase still bound, per cent of control (RPS6KA1 KD2 (human)): 17%
- kinase still bound, per cent of control (PAK2 (human)): 32%
- kinase still bound, per cent of control (RPS6KA6 KD2 (human)): 30%
- kinase still bound, per cent of control (MAP2K4 (human)): 3.9%
- kinase still bound, per cent of control (PIM1 (human) [1]): 4.9%
- kinase still bound, per cent of control (MAPK10 (human)): 31%
- kinase still bound, per cent of control (HIPK1 (human)): 0.45%
- kinase still bound, per cent of control (TTK (human)): 21%
- kinase still bound, per cent of control (ZAP70 (human)): 8.2%
- kinase still bound, per cent of control (STK17A (human)): 0.05%
- kinase still bound, per cent of control (GAK (human)): 5%
- kinase still bound, per cent of control (CSNK2A2 (human)): 24%
- kinase still bound, per cent of control (CLK4 (human)): 20%
- kinase still bound, per cent of control [5]: 30%
- kinase still bound, per cent of control (PIM2 (human) [3]): 0.45%
- kinase still bound, per cent of control (MAP3K7 (human)): 34%
- kinase still bound, per cent of control (CSNK2A1 (human)): 26%
- kinase still bound, per cent of control (ACVR2B (human)): 20%
- kinase still bound, per cent of control (PLK4 (human)): 18%
- kinase still bound, per cent of control (CLK1 (human)): 17%
- kinase still bound, per cent of control (GSK3A (human)): 20%
- kinase still bound, per cent of control (STK24 (human)): 27%
- kinase still bound, per cent of control (DYRK1B (human)): 7.4%
- kinase still bound, per cent of control (TGFBR2 (human)): 5.8%
- kinase still bound, per cent of control (TAOK1 (human)): 6%
- kinase still bound, per cent of control (CSNK1D (human)): 30%
- kinase still bound, per cent of control (ACVR2A (human)): 25%
- kinase still bound, per cent of control (MAPK8 (human)): 14%
- kinase still bound, per cent of control (TLK1 (human)): 22%
- kinase still bound, per cent of control (DAPK2 (human)): 12%
- kinase still bound, per cent of control (CLK2 (human)): 7.7%
- kinase still bound, per cent of control (DAPK1 (human)): 4.4%
- kinase still bound, per cent of control (MYLK4 (human)): 32%
- IC50 (PIM1 (human) [6]): 961 nM
- IC50 (PIM2 (human) [7]): 1770 nM
